According to PMC6372683, “Mechanism of the natural product moracin-O derived MO-460 and its targeting protein hnRNPA2B1 on HIF-1α inhibition” (Experimental & Molecular Medicine, 2019):

Legend:
HIF-1α = HIF-1α accumulation under real hypoxia (1% oxygen), western blotting and immunostaining; type: cell-based, human; settings: 24 h
Protocol: For immunofluorescence observation, Hep3B cells were seeded on microplates at 2 or 5 × 10^4 cells/mL and cultured for 18 h. […] The medium in the microplate wells was then removed and cells were fixed with 3.7% formaldehyde in PBS for 15 min then permeabilized for 5 min with 100% cold MeOH. Cells were washed with PBS containing 1% bovine serum albumin (PBS-1% BSA), and then treated with 5% bovine serum albumin for 20 min. The cells in each well were treated with HIF-1α antibody in PBS-0.1% BSA then placed in a humidified atmosphere of 5% CO2 at 37 °C and incubated for 60 min. After being washed with PBS-0.1% BSA, treated wells of HIF-1α were incubated with Alexa Fluor 488-conjugated mouse anti-IgG antibody in PBS-0.1% BSA then incubated at room temperature for 60 min. After being washed with PBS-0.1% BSA, the dish wells were overlaid with Hoechst 33342 for 5 min at room temperature and then washed with PBS-0.1% BSA. Fluorescence was photographed with an inverted ECLIPSE Ti-U microscope (Nikon Corporation, Japan).

[1] = biological target: T1, full-length hnRNPA2B1 (1–353 aa) (Homo sapiens, UniProt P22626); test: BLItz association-dissociation binding assay, full-length hnRNPA2B1; settings: 6XHis tagged protein, Con. 5 uM, biotin-MO-460 on streptavidin tip
T1 construct: 1–353 aa; His; made in house; host or cells: bacteria (pET28A vector)
Protocol: (§1) The binding capacity of hnRNPA2B1 to Biotin-MO-460 was also analyzed using a BLItz™ (Fortebio, Inc., CA, US) instrument with a streptavidin-coated biosensor tip (Pall, USA). The streptavidin-coated tips were pre-wetted for 10 min in an incubation buffer (10 mM HEPES pH 7.4, 1% BSA and 0.05% Tween 20). The streptavidin-coated tips were immobilized with 1 μM Biotin-MO-460 in incubation buffer (10 mM HEPES pH 7.4, 1% BSA and 0.05% Tween 20) for 5 min. […] The concentrations were then incubated with HEPES for another 3 min to desorb the protein. Analysis of the accurate and precise kinetic constants was performed by the BLItz data analysis software (BLItz Pro 1.1).

hnRNPA2B1 RRM (1–193 aa) = biological target: T2, hnRNPA2B1 RRM (1–193 aa) (Homo sapiens, UniProt P22626); test: BLItz association-dissociation binding assay, RRM of hnRNPA2B1; settings: 6XHis tagged protein, biotin-MO-460 on streptavidin tip
T2 construct: 1–193 aa; His; made in house; host or cells: bacteria (pET28A vector)
Protocol: as §1

[2] = biological target: T3, hnRNPA2B1 GRD (202–353 aa) (Homo sapiens, UniProt P22626); test: BLItz association-dissociation binding assay, GRD of hnRNPA2B1; settings: 6XHis tagged protein, Con. 5 uM, biotin-MO-460 on streptavidin tip
T3 construct: 202–353 aa; His; made in house; host or cells: bacteria (pET28A vector)
Protocol: as §1

[3] = biological target: T4, hnRNPA2B1 domain-based constructs fused to GFP (Homo sapiens, UniProt P22626); test: Pull-down assay with GFP-fused domain constructs of hnRNPA2B1; type: binding
T4 construct: expressed in transfected cells

[4] = test system: hnRNPA2B1 domain-based constructs fused to GFP; test: as above; type: binding, human; settings: GFP-fused N-terminal RNA recognition motifs

T1 sequence (P22626 whole entry, the tested form may be a part): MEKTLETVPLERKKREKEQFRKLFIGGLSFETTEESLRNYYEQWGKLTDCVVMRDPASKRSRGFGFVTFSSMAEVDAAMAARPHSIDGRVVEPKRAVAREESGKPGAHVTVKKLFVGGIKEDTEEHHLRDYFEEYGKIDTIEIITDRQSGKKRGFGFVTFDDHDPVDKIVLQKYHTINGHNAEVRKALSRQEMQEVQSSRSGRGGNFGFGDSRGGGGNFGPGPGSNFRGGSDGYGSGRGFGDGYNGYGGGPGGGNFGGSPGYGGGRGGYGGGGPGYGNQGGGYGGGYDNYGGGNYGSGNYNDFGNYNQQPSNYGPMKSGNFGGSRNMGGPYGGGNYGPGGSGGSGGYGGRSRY
T2 sequence (P22626 1-193): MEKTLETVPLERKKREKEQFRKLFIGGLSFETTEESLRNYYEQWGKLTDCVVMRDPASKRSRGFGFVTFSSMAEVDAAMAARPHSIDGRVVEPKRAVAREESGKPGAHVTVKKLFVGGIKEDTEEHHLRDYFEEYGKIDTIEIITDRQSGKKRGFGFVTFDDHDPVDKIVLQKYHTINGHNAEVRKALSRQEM
T3 sequence (P22626 202-353): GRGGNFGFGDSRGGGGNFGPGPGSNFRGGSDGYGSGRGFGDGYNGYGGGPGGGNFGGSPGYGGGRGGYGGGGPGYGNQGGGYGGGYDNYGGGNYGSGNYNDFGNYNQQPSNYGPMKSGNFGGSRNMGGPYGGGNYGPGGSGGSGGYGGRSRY

SMILES	HIF-1α accumulation (HIF-1α)	Kd [1] [µM]	Kd (hnRNPA2B1 RRM (1–193 aa))	Kd [2] [µM]	binding of C-terminal glycine-rich domain (GRD) in pull-down ([3]; GFP-fused GRD)	binding of full-length hnRNPA2B1 in pull-down ([3]; GFP-fused full-length hnRNPA2B1)	binding of RRM1, RRM2 and RRM1-RRM2 in pull-down [4]	melting point
CC(C)(O)[C@H]1Cc2cc3cc(-c4cc(O)cc(O)c4)oc3cc2O1 [(R)-(-)-moracin O, (R)-(-)-moracin-O, reference compound]	reduction in HIF-1α accumulation	–	–	–	–	–	–	–
CC(C)(O)[C@H]1Cc2cc3cc(-c4ccc(OCC(=O)NCCOCCOCCNC(=O)CCCC[C@@H]5SC[C@@H]6NC(=O)N[C@@H]65)cc4)oc3cc2O1 [biotin-MO-460, (R)-5-(2-Oxo-hexahydro-thieno[3,4-d]-imidazol-4-yl)-pentanoic acid-(2-{2-[2-(2-{4-[6-(1-hydroxy-1-methyl-ethyl)-5,6-dihydro-benzo[1,2-b;5,4-b']difuran-2-yl]-phenoxy}-acetyl-amino)-ethoxy]-ethoxy}-ethyl)-amide]	–	11.4	no specific interactions	6.6	strongly bound	strongly bound	did not bind	165.1 to 168.2 °C (dec.)
